# Calls of active or inactive are those of the source. The rule behind the calls is not given here.
# What was measured:
# [1] = test system: HCT-116; assay: Disruption of membrane integrity in human HCT116 cells assessed as increase in non-viable cells at 6 uM measured after 48 hrs by propidium iodide staining based flow cytometry relative to control; format: functional
# [2] = test system: HCT-116; assay: Induction of apoptosis in human HCT116 cells assessed as necrotic cells at 3 uM measured after 48 hrs by annexinV-PE/7-AAD staining based flow cytometric analysis (reference value: 0.16 %); format: functional
# [3] = test system: OVCAR-8; assay: Cytotoxicity against human OVCAR8 cells assessed as cell growth inhibition at 5 ug/ml measured after 72 hrs by MTT assay relative to control; format: functional; settings: OVCAR-8, 72 h, read-out: GI
# [4] = test system: HCT-116; assay: Induction of apoptosis in human HCT116 cells assessed as […] in cleaved caspase 7 expression at 3 to 6 uM measured after 48 hrs by Western blot analysis; format: functional, cell-based
# [5] = test system: HL-60; assay: Cytotoxicity against human HL60 cells assessed as cell growth inhibition at 5 ug/ml measured after 72 hrs by MTT assay relative to control; format: functional; settings: HL-60, 72 h, read-out: GI
# [6] = test system: HCT-116; assay: Cell cycle arrest in human HCT116 cells assessed as accumulation at G0/G1 phase at 1.5 uM measured after 48 hrs by propidium iodide staining based flow cytometry (reference value: 41.67 %); format: functional
# [7] = test system: HCT-116; assay: Disruption of membrane integrity in human HCT116 cells assessed as decrease in viable cells at 3 uM measured after 48 hrs by propidium iodide staining based flow cytometry relative to control; format: functional
# [8] = test system: HCT-116; assay: Induction of morphological changes in human HCT116 cells assessed as decrease in number of mitotic cells at 1.5 to 6 uM measured after 48 hrs by propidium iodide staining based flow cytometry; format: functional, cell-based
# [9] = test system: HCT-116; assay: Induction of morphological changes in human HCT116 cells assessed as discrete apoptotic cells at 6 uM measured after 48 hrs by propidium iodide staining based flow cytometry; format: functional, cell-based
# [10] = test system: HCT-116; assay: Induction of apoptosis in human HCT116 cells assessed as increase in caspase 7 expression at 3 to 6 uM measured after 48 hrs by Western blot analysis; format: functional, cell-based
# [11] = test system: HCT-116; assay: Disruption of membrane integrity in human HCT116 cells assessed as decrease in viable cells at 6 uM measured after 48 hrs by propidium iodide staining based flow cytometry relative to control; format: functional
# [12] = test system: HCT-116; assay: Induction of apoptosis in human HCT116 cells assessed as late apoptotic cells at 6 uM measured after 48 hrs by annexin-V staining based flow cytometry (reference value: 0.34 %); format: functional
# [13] = test system: HCT-116; assay: Induction of apoptosis in human HCT116 cells assessed as necrotic cells at 1.5 uM measured after 48 hrs by annexinV-PE/7-AAD staining based flow cytometric analysis (reference value: 0.16 %); format: functional
# [14] = test system: HCT-116; assay: Cell cycle arrest in human HCT116 cells assessed as accumulation at G2/M phase at 3 uM measured after 48 hrs by propidium iodide staining based flow cytometry (reference value: 24.98 %); format: functional
# [15] = test system: HCT-116; assay: Induction of apoptosis in human HCT116 cells assessed as live cells at 6 uM measured after 48 hrs by annexinV-PE/7-AAD staining based flow cytometric analysis (reference value: 91.42 %); format: functional
# [16] = test system: HCT-116; assay: Induction of apoptosis in human HCT116 cells assessed as live cells at 1.5 uM measured after 48 hrs by annexinV-PE/7-AAD staining based flow cytometric analysis (reference value: 91.42 %); format: functional
# [17] = test system: HCT-116; assay: Induction of apoptosis in human HCT116 cells assessed as late apoptotic cells at 3 uM measured after 48 hrs by annexinV-PE/7-AAD staining based flow cytometric analysis (reference value: 0.18 %); format: functional
# [18] = test system: HCT-116; assay: Cell cycle arrest in human HCT116 cells assessed as accumulation at G0/G1 phase at 6 uM measured after 48 hrs by propidium iodide staining based flow cytometry (reference value: 41.67 %); format: functional
# [19] = test system: MCF7; assay: Cytotoxicity against human MCF7 cells assessed as reduction in cell viability measured after 72 hrs by MTT assay; format: functional, cell-based; settings: MCF7, 72 h
# [20] = test system: HCT-116; assay: Induction of autophagy in human HCT116 cells decrease in Beclin 1 level at 6 uM measured after 48 hrs by Western blot analysis; format: functional, cell-based
# [21] = test system: HCT-116; assay: Induction of apoptosis in human HCT116 cells assessed as necrotic cells at 6 uM measured after 48 hrs by annexinV-PE/7-AAD staining based flow cytometric analysis (reference value: 0.16 %); format: functional
# [22] = test system: HCT-116; assay: Cell cycle arrest in human HCT116 cells assessed as accumulation at G2/M phase at 6 uM measured after 48 hrs by propidium iodide staining based flow cytometry (reference value: 24.98 %); format: functional
# [23] = test system: HCT-116; assay: Induction of autophagy in human HCT116 cells assessed as formation of acidic vesicular organelles at 3 to 6 uM measured after 48 hrs by acridine orange staining based confocal microscopy; format: functional, cell-based
# [24] = test system: HCT-116; assay: Cytotoxicity against human HCT116 cells assessed as reduction in cell viability measured after 24 hrs by MTT assay; format: functional, cell-based; settings: HCT-116, 24 h
# [25] = test system: HepG2; assay: Cytotoxicity against human HepG2 cells assessed as reduction in cell viability measured after 72 hrs by MTT assay; format: functional, cell-based; settings: HepG2, 72 h
# [26] = test system: K562; assay: Cytotoxicity against human K562 cells assessed as reduction in cell viability measured after 72 hrs by MTT assay; format: functional, cell-based; settings: K562, 72 h
# [27] = test system: HCT-116; assay: Induction of apoptosis in human HCT116 cells assessed as live cells at 3 uM measured after 48 hrs by annexinV-PE/7-AAD staining based flow cytometric analysis (reference value: 91.42 %); format: functional
# [28] = test system: HCT-116; assay: Induction of DNA fragmentation in human HCT116 cells at 6 uM measured after 48 hrs by propidium iodide staining based flow cytometry relative to control; format: functional
# [29] = test system: L929; assay: Cytotoxicity against mouse L929 cells assessed as reduction in cell viability measured after 72 hrs by MTT assay; format: cell-based; settings: L929, 72 h
# [30] = test system: HL-60; assay: Cytotoxicity against human HL60 cells assessed as reduction in cell viability measured after 72 hrs by MTT assay; format: functional, cell-based; settings: HL-60, 72 h
# [31] = test system: HCT-116; assay: Induction of apoptosis in human HCT116 cells assessed as early apoptotic cells at 1.5 uM measured after 48 hrs by annexinV-PE/7-AAD staining based flow cytometric analysis (reference value: 6.53 %); format: functional
# [32] = test system: HCT-116; assay: Cell cycle arrest in human HCT116 cells assessed as accumulation at S phase at 6 uM measured after 48 hrs by propidium iodide staining based flow cytometry (reference value: 33.29 %); format: functional
# [33] = test system: HCT-116; assay: Induction of morphological changes in human HCT116 cells assessed as increase in number of intracellular vesicles at 1.5 to 6 uM measured after 48 hrs by propidium iodide staining based flow cytometry; format: functional, cell-based
# [34] = test system: HCT-116; assay: Induction of morphological changes in human HCT116 cells assessed as increase in size of intracellular vesicles at 1.5 to 6 uM measured after 48 hrs by propidium iodide staining based flow cytometry; format: functional, cell-based
# [35] = test system: HCT-116; assay: Cell cycle arrest in human HCT116 cells assessed as accumulation at G0/G1 phase at 3 uM measured after 48 hrs by propidium iodide staining based flow cytometry (reference value: 41.67 %); format: functional
# [36] = test system: HCT-116; assay: Induction of apoptosis in human HCT116 cells assessed as early apoptotic cells at 6 uM measured after 48 hrs by annexinV-PE/7-AAD staining based flow cytometric analysis (reference value: 6.53 %); format: functional
compound,measurement,setting,value
C(=N\Nc1cnc2ccccc2n1)/c1ccccn1,Activity,[1],31.36%
same,Activity,[2],0.87%
same,inhibition of growth at 5 µg/mL,[3],97.8%
same,Activity,[4],Active
same,inhibition of growth at 5 µg/mL,[5],94.8%
same,Activity,[6],35.69%
same,Activity,[7],90.45%
same,Activity,[8],Active
same,Activity,[9],Active
same,Activity,[10],Active
same,Activity,[11],68.31%
same,Activity,[12],25.6%
same,Activity,[13],0.63%
same,Activity,[14],30.19%
same,Activity,[15],66.2%
same,Activity,[16],89.63%
same,Activity,[17],2.55%
same,Activity,[18],64.85%
same,IC50,[19],7000 nM
same,Activity,[20],Active
same,Activity,[21],7.49%
same,Activity,[22],5.8%
same,Activity,[23],Active
same,IC50,[24],> 20000 nM
same,IC50,[25],7350 nM
same,IC50,[26],2620 nM
same,Activity,[27],90.36%
same,Activity,[28],3.89%
same,IC50,[29],2270 nM
same,IC50,[30],820 nM
same,Activity,[31],5.61%
same,Activity,[32],29.41%
same,Activity,[33],Active
same,Activity,[34],Active
same,Activity,[35],14.45%
same,Activity,[36],8.28%

# From ChEMBL document CHEMBL4602644, “Synthesis of PJOV56, a new quinoxalinyl-hydrazone derivative able to induce autophagy and apoptosis in colorectal cancer cells, and related compounds” (Bioorg Med Chem Lett, 2020)
